The target in one experiment is T1, FBXL10 (Homo sapiens, UniProt Q8NHM5).
T1 construct: purchased BPS Bioscience 50120
T1 sequence (Q8NHM5 1-650): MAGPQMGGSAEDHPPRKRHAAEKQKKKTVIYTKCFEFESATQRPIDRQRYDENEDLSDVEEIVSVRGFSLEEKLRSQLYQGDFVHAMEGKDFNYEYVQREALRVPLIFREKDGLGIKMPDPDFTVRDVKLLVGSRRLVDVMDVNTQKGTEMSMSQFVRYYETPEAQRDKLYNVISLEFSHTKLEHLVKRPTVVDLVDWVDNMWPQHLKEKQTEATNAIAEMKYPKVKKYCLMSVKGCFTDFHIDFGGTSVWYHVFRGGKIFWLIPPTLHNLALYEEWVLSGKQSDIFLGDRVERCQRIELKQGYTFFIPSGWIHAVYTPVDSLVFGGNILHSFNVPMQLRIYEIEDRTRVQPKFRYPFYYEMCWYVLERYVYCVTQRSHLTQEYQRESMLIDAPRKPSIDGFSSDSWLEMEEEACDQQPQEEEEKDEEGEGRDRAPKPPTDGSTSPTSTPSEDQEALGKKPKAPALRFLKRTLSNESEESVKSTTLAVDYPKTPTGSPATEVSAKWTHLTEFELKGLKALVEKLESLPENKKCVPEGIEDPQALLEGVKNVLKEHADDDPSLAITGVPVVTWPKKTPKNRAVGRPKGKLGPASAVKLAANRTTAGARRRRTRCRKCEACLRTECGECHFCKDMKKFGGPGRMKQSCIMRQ
In words: FBXL10 in vitro enzyme inhibition assay (AlphaScreen). Conditions: Table 3; 0.3 nM FBXL10, H3K36me2-biotin labeled peptide. The experiment is classed as biochemical. An excerpt:
(§1) This assay determines the ability of a test compound to inhibit FBXL11, FBXL10, and PHF8 demethylase activity. Baculovirus expressed FBXL11 (GenBank Accession #NM_012308, AA1-1162) was purchased from BPS Bioscience (Cat#50102). Baculovirus expressed FBXL10 (GenBank Accession #NM_032590, AA 1-650) was purchased from BPS Bioscience (Cat #50120). Baculovirus expressed PHF8 (GenBank Accession NP_055922.1) was purchased from Active Motif (Cat#31435).
The ability of test compounds to inhibit the activity of FBXL10 was determined in 384-well plate format under the following reaction conditions: 0.3 nM FBXL10, 30 nM H3K36me2-biotin labeled peptide (Anaspec cat # 64442), 0.2 µM alpha-ketoglutaric acid in assay buffer of 50 mM HEPES, pH7.3, 0.005% Brij35, 0.5 mM TCEP, 0.2 mg/ml BSA, 50 µM sodium L-ascorbate, 5 µM ammonium iron(II) sulfate. Reaction product is determined quantitatively by AlphaScreen detection after the addition of detection reagents anti-H3K36me1 antibody, AlphaScreen® Streptavidin-coated Donor beads, and AlphaScreen® Protein A Acceptor beads in 50 mM HEPES, pH7.3, 10 mM NaCl, 0.005% Brij35, 5 mM EDTA, 2 mg/ml BSA to final 10 µg/ml beads.
The assay reaction was initiated by the following: 3 µl of the mixture of 90 nM H3K36me2-biotin labeled peptide and 0.6 µM alpha-ketoglutaric acid with 3 µl of 11-point serial diluted inhibitor in 3% DMSO are added to each well of 384 well Proxiplate (Perkin Elmer), followed by the addition of 3 µl of 0.9 nM FBXL10 to initiate the reaction. The reaction mixture is incubated at room temperature for 1 hour, and terminated by the addition of 3 µl of appropriate dilution of anti H3K36me1 antibody in 50 mM HEPES, pH7.3, 10 mM NaCl, 0.005% Brij35, 5 mM EDTA, 2 mg/ml BSA. Plates will then incubated at room temperature for 40 minutes, followed by addition of 3 µl of 50 µg/ml AlphaScreen® Streptavidin-coated Donor beads and AlphaScreen® Protein A Acceptor beads in 50 mM HEPES, pH7.3, 10 mM NaCl, 0.005% Brij35, 5 mM EDTA, 2 mg/ml BSA. Plates will then be read by EnVision Multilabel Reader in AlphaScreen mode after minimum 2 hour incubation at room temperature. The AlphaScreen signal for each well is used to determine inhibition constant (IC50).

The next experiment deals with T2, PHF8 (Homo sapiens, UniProt Q9UPP1).
T2 construct: purchased Active Motif 31435
Description: PHF8 in vitro enzyme inhibition assay (TR-FRET). The experiment is classed as biochemical. Conditions: Table 3; 3 nM PHF8, H3K9me1-biotin labeled peptide.
Description: as §1
The ability of test compounds to inhibit the activity of PHF8 was determined in 384-well plate format under the following reaction conditions: 3 nM PHF8, 200 nM H3K9me1-biotin labeled peptide (Anaspec cat #64358), 0.5 µM alpha-ketoglutaric acid in assay buffer of 50 mM HEPES, pH7.3, 0.005% Brij35, 0.5 mM TCEP, 0.2 mg/ml BSA, 50 µM sodium L-ascorbate, and 5 µM ammonium iron(II) sulfate. Reaction product was determined quantitatively by TR-FRET after the addition of detection reagent Phycolink Streptavidin-allophycocyanin (Prozyme) and Europium-anti-unmodified-histone H3 lysine 9/lysine27 (H3K9/K27) antibody (PerkinElmer) in the presence of 5 mM EDTA in LANCE detection buffer (PerkinElmer) at a final concentration of 25 nM and 0.5 nM, respectively.
The assay reaction was initiated by the following: 2 µl of the mixture of 600 nM H3K9me1-biotin labeled peptide and 1.5 µM alpha-ketoglutaric acid with 2 µl of 11-point serial diluted inhibitor in 3% DMSO were added to each well of the plate, followed by the addition of 2 µl of 9 nM PHF8 to initiate the reaction. The reaction mixture was incubated at room temperature for 15 minutes, and terminated by the addition of 6 µl of 5 mM EDTA in LANCE detection buffer containing 50 nM Phycolink Streptavidin-allophycocyanin and 1 nM Europium-anti-unmodified H3K9/K27 antibody. Plates were read by EnVision Multilabel Reader in TR-FRET mode (excitation at 320 nm, emission at 615 nm and 665 nm) after 1 hour incubation at room temperature. A ratio was calculated (665/615) for each well and fitted to determine inhibition constant (IC50).
On the technique in general: Time-resolved FRET reads energy transfer from a long-lived donor to a nearby acceptor.

The subject of experiment [1] is KDM2B-bound genes of the established Mia Paca-2 cancer cell line. In words: Mia Paca-2 pancreatic cell line expression assay for KDM2B-related genes (real-time PCR). The experiment is classed as cell-based. Conditions: Homo sapiens; Table 4; Mia Paca-2 cells; read-out: Cellular IC50. An excerpt:
Gene expression assay to assess the ability of KDM2B small molecule inhibitors to activate the expression of KDM2B-bound genes of the established Mia Paca-2 cancer cell line.
This gene expression assay is a real-time PCR assay which quantifies the amount of messenger RNA from genes that are normally repressed by KDM2B interacting with EZH2 compared with a control GAPDH gene whose expression is not regulated by KDM2B. The amount of gene expression is correlated to the amount of small molecule inhibition of KDM2B's enzymatic activity.
The established cancer cell line Mia Paca-2 was purchased from American Type Culture Collection (ATCC) and routinely passaged according to ATCC published protocols. Cells were seeded at a density of 40,000 per 96-well. 24 hours after plating, cells received final concentrations of 20nM, 40nM, 80nM and 320nM of test compound. […] At the end of each of the compound incubation period, media was removed and cells were trypsinized according to the ATCC published protocol. mRNA was then harvested from the cell samples using a RNeasy kit (Qiagen). mRNA was quantified and qualified using a Nanodrop machine (Thermo Scientific). mRNA was converted to cDNA using the High-Capacity cDNA Reverse Transcription Kit (Applied Biosystems). […] Data was analyzed using the delta-delta Ct method to calculate fold enrichment over DMSO sample gene expression.
In general terms: Quantitative PCR measures a nucleic acid by following its amplification.

This passage reports IC50 results from EP3436445B1, “HISTONE DEMETHYLASE INHIBITORS” (Celgene Quanticel Research, Inc., priority 2016, dated 2017).

T2 sequence (Q9UPP1 37-1060): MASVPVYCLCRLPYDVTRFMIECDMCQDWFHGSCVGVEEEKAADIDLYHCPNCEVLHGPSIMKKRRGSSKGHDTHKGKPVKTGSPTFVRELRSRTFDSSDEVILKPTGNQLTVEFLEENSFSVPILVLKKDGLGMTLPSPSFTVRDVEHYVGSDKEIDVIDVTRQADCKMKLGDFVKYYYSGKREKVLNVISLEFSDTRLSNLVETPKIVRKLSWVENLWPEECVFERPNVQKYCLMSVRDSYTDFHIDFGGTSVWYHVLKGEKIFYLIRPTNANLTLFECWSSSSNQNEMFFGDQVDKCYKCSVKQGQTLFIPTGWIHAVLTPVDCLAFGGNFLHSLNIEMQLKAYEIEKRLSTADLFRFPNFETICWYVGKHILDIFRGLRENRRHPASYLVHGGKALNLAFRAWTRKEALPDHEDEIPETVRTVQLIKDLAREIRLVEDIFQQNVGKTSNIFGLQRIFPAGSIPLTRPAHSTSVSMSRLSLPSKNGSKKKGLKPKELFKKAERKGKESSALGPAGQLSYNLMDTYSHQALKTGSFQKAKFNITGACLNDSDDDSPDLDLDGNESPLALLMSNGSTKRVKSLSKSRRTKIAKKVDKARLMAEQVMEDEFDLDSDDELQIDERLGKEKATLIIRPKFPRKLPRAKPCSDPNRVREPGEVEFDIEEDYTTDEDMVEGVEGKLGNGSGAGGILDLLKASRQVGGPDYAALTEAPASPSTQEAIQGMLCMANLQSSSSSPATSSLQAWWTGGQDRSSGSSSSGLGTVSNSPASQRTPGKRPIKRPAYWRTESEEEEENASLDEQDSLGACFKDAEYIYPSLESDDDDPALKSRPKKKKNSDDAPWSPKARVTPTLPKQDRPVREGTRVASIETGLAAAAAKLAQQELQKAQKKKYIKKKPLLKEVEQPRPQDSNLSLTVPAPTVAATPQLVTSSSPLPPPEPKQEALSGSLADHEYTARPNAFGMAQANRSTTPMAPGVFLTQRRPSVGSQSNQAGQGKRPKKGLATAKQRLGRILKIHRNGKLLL

Regarding `Fc1c(Cn2cnc(-c3cc(-c4c[nH]nn4)ccn3)c2)cccc1OC(F)(F)F` [Example 26, 2-[1-[[2-fluoro-3-(trifluoromethoxy)phenyl]methyl]imidazol-4-yl]-4-(1H-triazol-4-yl)pyridine], the IC50 (usually the concentration that gives 50% inhibition) against FBXL10 is 100 to 1000 nM.

For the compound `c1ccc(-c2ccccc2CCn2cnc(-c3cc(-c4c[nH]nn4)ccn3)c2)cc1` [Example 27, 2-[1-[2-(2-phenylphenyl)ethyl]imidazol-4-yl]-4-(1H-triazol-4-yl)pyridine], the half-inhibitory concentration (IC50) on FBXL10 is 100 to 1000 nM.

As to `CC(Cc1ccccc1)n1cnc(-c2cc(-c3c[nH]nn3)ccn2)c1` (stereo not drawn) [Example 33, 2-[1-(1-phenylpropan-2-yl)imidazol-4-yl]-4-(1H-triazol-4-yl)pyridine], the IC50 on FBXL10 was 100 to 1000 nM.

Regarding `FC(F)(F)Oc1ccccc1CCn1cnc(-c2cc(-c3c[nH]nn3)ccn2)c1` [Example 34], the IC50 on FBXL10 was at most 100 nM; against PHF8, 100 to 1000 nM.

For `FC(F)(F)c1[nH]nnc1-c1ccnc(-c2cn(CCc3cccc4ccccc34)cn2)c1` [Example 37, 2-[1-(2-naphthalen-1-ylethyl)imidazol-4-yl]-4-[5-(trifluoromethyl)-1H-triazol-4-yl]pyridine], the concentration for half-maximal inhibition (IC50) in experiment [1] lay in the range of 100 to 1000 nM.

For the compound `Cn1cnc(-c2cc(-c3nn[nH]c3F)ccn2)c1-c1ccc(F)cc1OCC1CC1` [Example 41, 2-[5-[2-(cyclopropylmethoxy)-4-fluorophenyl]-1-methylimidazol-4-yl]-4-(5-fluoro-1H-triazol-4-yl)pyridine], the 50% inhibitory concentration (IC50) in experiment [1] was 1000 to 10000 nM.

As for `c1nc(-c2cn(CC3CC3)cn2)cc2[nH]nnc12` [Example 42, 1-(cyclopropylmethyl)-4-{1H-[1,2,3]triazolo[4,5-c]pyridin-6-yl}-1H-imidazole], the results for the IC50 against FBXL10 and on PHF8 were at most 100 nM and 1000 to 10000 nM, respectively.

`Clc1cc(Cl)cc(-n2cnc(-c3cc4[nH]nnc4cn3)c2)c1` [Example 52, 1-(3,5-dichlorophenyl)-4-{1H-[1,2,3]triazolo[4,5-c]pyridin-6-yl}-1H-imidazole]: the IC50 against FBXL10 was 100 to 1000 nM; against PHF8 it was 1000 to 10000 nM.

Regarding `Cn1cnc(-c2cc3[nH]nnc3cn2)c1-c1ccc(F)cc1` [Example 53, 5-(4-fluorophenyl)-1-methyl-4-{1H-[1,2,3]triazolo[4,5-c]pyridin-6-yl}-1H-imidazole], the half-maximal inhibitory concentration (IC50) is 100 to 1000 nM at FBXL10 and 1000 to 10000 nM against PHF8.

Turning to `Clc1ccccc1Cn1cnc(-c2cc(-c3cn[nH]n3)ccn2)c1Br` [Example 55, 2-(5-bromo-1-(2-chlorobenzyl)-1H-imidazol-4-yl)-4-(2H-1,2,3-triazol-4-yl)pyridine], the IC50 at FBXL10 is at most 100 nM; against PHF8 it was 100 to 1000 nM.
